Converted amounts (≈) assume the structure as drawn.
Tested on: HCMV wild-type
Assay: HCMV yield assay
Format: cell-based, human cytomegalovirus
Details: Human betaherpesvirus 5, Fibroblast, human foreskin fibroblasts; read-out: IC50 Ug/ml HCMV
Protocol: Yield assay. Monolayer cultures of human foreskin fibroblasts are infected with HCMV wild-type, typically at a multiplicity of infection equal to 0.2, in the presence of inhibitor compound (varying concentrations). At three days post-infection, total virus produced in these cultures (i.e. virus yield) is assessed by harvesting and titering the virus in 12-well plates of cultured human foreskin fibroblasts (done in the absence of inhibitor). Plaques are quantified at 2 weeks post-infection. An inhibitor of HCMV is identified by the reduction in titer of virus yield in the presence, compared to the titer in the absence of compound. In this assay, the relative anti-HCMV activity of an inhibitor is typically determined by calculating the IC50 or IC90 value, that is, the amount of compound required to reduce the virus yield by 50% or 90%, respectively. Table I describes IC50 data for compounds tested against HCMV.

Compound	IC50
COc1cc(OC)c(NC(=S)Nc2ccc(N(C)C(C)=O)cc2)cc1Cl [Example 99, N-{4-[3-(5-Chloro-2,4-dimethoxy-phenyl)-thioureido]-phenyl}-N-methyl-acetamide]	> 50 µg/mL
COc1cc(OC)c(NC(=S)Nc2cccc(NC(C)=O)c2)cc1Cl [Example 100, N-{3-[3-(5-Chloro-2,4-dimethoxy-phenyl)-thioureido]-phenyl}-acetamide]	> 50 µg/mL
COc1ccc(NC(=S)Nc2ccc(NC(C)=O)cc2)c(OC)c1 [Example 103, N-{4-[3-(2,4-Dimethoxy-phenyl)-thioureido]-phenyl}-acetamide]	> 50 µg/mL
COc1ccc(NC(=S)Nc2ccc(NC(C)=O)cc2)cc1 [Example 104, N-{4-[3-(4-Methoxy-phenyl)-thioureido]-phenyl}-acetamide]	> 50 µg/mL
COc1ccccc1NC(=S)Nc1ccc(NC(C)=O)cc1 [Example 105, N-{4-[3-(2-Methoxy-phenyl)-thioureido]-phenyl}-acetamide]	> 50 µg/mL
COc1ccc(NC(=S)Nc2ccc(NC(C)=O)cc2)cc1Cl [Example 106, N-{4-[3-(3-Chloro-4-methoxy-phenyl)-thioureido]-phenyl}-acetamide]	7 µg/mL (≈ 20 µM)
COc1ccc(Cl)cc1NC(=S)Nc1ccc(NC(C)=O)cc1 [Example 107, N-{4-[3-(5-Chloro-2-methoxy-phenyl)-thioureido]-phenyl}-acetamide]	> 50 µg/mL
CC(=O)Nc1ccc(NC(=S)Nc2cc(Cl)c(O)c(Cl)c2)cc1 [Example 108, N-{4-[3-(3,5-Dichloro-4-hydroxy-phenyl)-thioureido]-phenyl}-acetamide]	> 50 µg/mL
COc1c(Cl)cc(NC(=S)Nc2ccc(NC(C)=O)cc2)cc1Cl [Example 109, N-{4-[3-(3,5-Dichloro-4-methoxy-phenyl)-thioureido]-phenyl}-acetamide]	0.4 µg/mL (≈ 1.04 µM)
COc1cc(NC(=S)Nc2ccc(NC(C)=O)cc2)c(OC)cc1Cl [Example 110, N-{4-[3-(4-Chloro-2,5-dimethoxy-phenyl)-thioureido]-phenyl}-acetamide]	30 µg/mL (≈ 79 µM)
CC(=O)Nc1ccc(NC(=S)Nc2cc(C(F)(F)F)ccc2Cl)cc1 [Example 111, N-{4-[3-(2-Chloro-5-trifluoromethyl-phenyl)-thioureido]-phenyl}-acetamide]	12 µg/mL (≈ 30.9 µM)
CC(=O)Nc1ccc(NC(=S)Nc2ccc(Cl)c(C(F)(F)F)c2)cc1 [Example 112, N-{4-[3-(4-Chloro-3-trifluoromethyl-phenyl)-thioureido]-phenyl}-acetamide]	3 µg/mL (≈ 7.74 µM)

Tested on: HSV-1
Assay: HSV Antiviral (ELISA) Assay
Format: cell-based, herpes simplex virus type 1
Details: Human alphaherpesvirus 1, Vero, Vero cells, HSV-1; read-out: IC50 Ug/ml HSV
Protocol: Vero cells (ATCC #CCL-81) are plated on 96-well tissue culture plates at 3.5×10^4 cells per 100 μl tissue culture DMEM (Dulbecco's modified Eagle media) supplemented with 2% fetal bovine serum (FBS) in each well. After overnight incubation @ 37° C. (in 5% CO2) and 30 minutes prior to infection with HSV-1 (multiplicity of infection equal to 0.006), cells are either untreated, or treated with test compound (multiple concentrations) or reference standard drug control. After approximately 24 hours post-infection incubation @ 37° C. (in 5% CO2), cells are fixed for ELISA assay. The primary antibody is murine anti-HSV glycoprotein D monoclonal primary antibody and the secondary antibody is goat anti-mouse IgG linked to β-galactosidase. Thus the extent of viral replication is determined by assessing β-galactosidase activity by quantifying the generation of the 4-methyl umbelliferone fluorescent cleavage product after addition of the methyl umbelliferyl-β-D-galactoside (Sigma #M1633) substrate on a microfluorimeter (365 nm for excitation and 450 nm for emission). Antiviral activity (IC50) of the test compound is determined by comparing the flourescence obtained in absence of compound to that obtained in the presence of compound.

Compound	IC50
COc1cc(OC)c(NC(=S)Nc2ccc(N(C)C(C)=O)cc2)cc1Cl [Example 99, N-{4-[3-(5-Chloro-2,4-dimethoxy-phenyl)-thioureido]-phenyl}-N-methyl-acetamide]	50 µg/mL (≈ 127 µM)
COc1cc(OC)c(NC(=S)Nc2cccc(NC(C)=O)c2)cc1Cl [Example 100, N-{3-[3-(5-Chloro-2,4-dimethoxy-phenyl)-thioureido]-phenyl}-acetamide]	40 µg/mL (≈ 105 µM)
COc1ccc(NC(=S)Nc2ccc(NC(C)=O)cc2)c(OC)c1 [Example 103, N-{4-[3-(2,4-Dimethoxy-phenyl)-thioureido]-phenyl}-acetamide]	25 µg/mL (≈ 72.4 µM)
COc1ccc(NC(=S)Nc2ccc(NC(C)=O)cc2)cc1 [Example 104, N-{4-[3-(4-Methoxy-phenyl)-thioureido]-phenyl}-acetamide]	> 50 µg/mL
COc1ccccc1NC(=S)Nc1ccc(NC(C)=O)cc1 [Example 105, N-{4-[3-(2-Methoxy-phenyl)-thioureido]-phenyl}-acetamide]	> 50 µg/mL
COc1ccc(NC(=S)Nc2ccc(NC(C)=O)cc2)cc1Cl [Example 106, N-{4-[3-(3-Chloro-4-methoxy-phenyl)-thioureido]-phenyl}-acetamide]	3 µg/mL (≈ 8.58 µM)

Now from value to compound:

IC50	Compound
> 50 µg/mL	COc1ccc(Cl)cc1NC(=S)Nc1ccc(NC(C)=O)cc1 [Example 107, N-{4-[3-(5-Chloro-2-methoxy-phenyl)-thioureido]-phenyl}-acetamide]
50 µg/mL (≈ 135 µM)	CC(=O)Nc1ccc(NC(=S)Nc2cc(Cl)c(O)c(Cl)c2)cc1 [Example 108, N-{4-[3-(3,5-Dichloro-4-hydroxy-phenyl)-thioureido]-phenyl}-acetamide]
> 10 µg/mL	COc1c(Cl)cc(NC(=S)Nc2ccc(NC(C)=O)cc2)cc1Cl [Example 109, N-{4-[3-(3,5-Dichloro-4-methoxy-phenyl)-thioureido]-phenyl}-acetamide]
12 µg/mL (≈ 31.6 µM)	COc1cc(NC(=S)Nc2ccc(NC(C)=O)cc2)c(OC)cc1Cl [Example 110, N-{4-[3-(4-Chloro-2,5-dimethoxy-phenyl)-thioureido]-phenyl}-acetamide]
15 µg/mL (≈ 38.7 µM)	CC(=O)Nc1ccc(NC(=S)Nc2cc(C(F)(F)F)ccc2Cl)cc1 [Example 111, N-{4-[3-(2-Chloro-5-trifluoromethyl-phenyl)-thioureido]-phenyl}-acetamide]
5 µg/mL (≈ 12.9 µM)	CC(=O)Nc1ccc(NC(=S)Nc2ccc(Cl)c(C(F)(F)F)c2)cc1 [Example 112, N-{4-[3-(4-Chloro-3-trifluoromethyl-phenyl)-thioureido]-phenyl}-acetamide]

Tested on: VZV strain Ellen
Assay: VZV Antiviral (ELISA) Assay
Format: cell-based, varicella-zoster virus
Details: Human alphaherpesvirus 3, Fibroblast, human foreskin fibroblast cells; read-out: IC50 Ug/ml VZV
Protocol: For the generation of stock VZV to be used in the assay, VZV strain Ellen (ATCC #VR-1367) is used to infect human foreskin fibroblast (HFF) cells at low multiplicity (less than 0.1) and incubated overnight at 37° C. in 5% CO2. After the overnight incubation, the mixture of uninfected and VZV-infected HFF infected cells are then harvested and added to each well of 96-well plates (3.5×10^4 cells in 100 μl DMEM supplemented with 2% FBS) which contain test compound or the reference standard drug control (in 100 μl DMEM supplemented with 2% FBS per well). These cells are incubated for three days at 37° C. in 5% CO2, then fixed for ELISA assay. The primary antibody is murine anti-VZV glycoprotein II monoclonal antibody (Applied Biosystems, Inc. #13-145-100) and the secondary antibody is goat anti-mouse IgG linked to β-galactosidase. Thus the extent of viral replication is determined by assessing β-galactosidase activity by quantifying the generation of the 4-methyl umbelliferone fluorescent cleavage product after addition of the methyl umbelliferyl-β-D-galactoside (Sigma #M1633) substrate on a microfluorimeter (365 nm for excitation and 450 nm for emission). Antiviral activity (IC50) of the test compound is determined by comparing the flourescence obtained in absence of compound to that obtained in the presence of compound.

Compound	IC50
COc1cc(OC)c(NC(=S)Nc2ccc(N(C)C(C)=O)cc2)cc1Cl [Example 99, N-{4-[3-(5-Chloro-2,4-dimethoxy-phenyl)-thioureido]-phenyl}-N-methyl-acetamide]	> 10 µg/mL
COc1cc(OC)c(NC(=S)Nc2cccc(NC(C)=O)c2)cc1Cl [Example 100, N-{3-[3-(5-Chloro-2,4-dimethoxy-phenyl)-thioureido]-phenyl}-acetamide]	> 10 µg/mL
COc1ccc(NC(=S)Nc2ccc(NC(C)=O)cc2)c(OC)c1 [Example 103, N-{4-[3-(2,4-Dimethoxy-phenyl)-thioureido]-phenyl}-acetamide]	> 10 µg/mL
COc1ccc(NC(=S)Nc2ccc(NC(C)=O)cc2)cc1 [Example 104, N-{4-[3-(4-Methoxy-phenyl)-thioureido]-phenyl}-acetamide]	> 10 µg/mL
COc1ccccc1NC(=S)Nc1ccc(NC(C)=O)cc1 [Example 105, N-{4-[3-(2-Methoxy-phenyl)-thioureido]-phenyl}-acetamide]	> 10 µg/mL
COc1ccc(NC(=S)Nc2ccc(NC(C)=O)cc2)cc1Cl [Example 106, N-{4-[3-(3-Chloro-4-methoxy-phenyl)-thioureido]-phenyl}-acetamide]	> 10 µg/mL
COc1ccc(Cl)cc1NC(=S)Nc1ccc(NC(C)=O)cc1 [Example 107, N-{4-[3-(5-Chloro-2-methoxy-phenyl)-thioureido]-phenyl}-acetamide]	> 10 µg/mL
CC(=O)Nc1ccc(NC(=S)Nc2cc(Cl)c(O)c(Cl)c2)cc1 [Example 108, N-{4-[3-(3,5-Dichloro-4-hydroxy-phenyl)-thioureido]-phenyl}-acetamide]	> 10 µg/mL
COc1c(Cl)cc(NC(=S)Nc2ccc(NC(C)=O)cc2)cc1Cl [Example 109, N-{4-[3-(3,5-Dichloro-4-methoxy-phenyl)-thioureido]-phenyl}-acetamide]	> 10 µg/mL
COc1cc(NC(=S)Nc2ccc(NC(C)=O)cc2)c(OC)cc1Cl [Example 110, N-{4-[3-(4-Chloro-2,5-dimethoxy-phenyl)-thioureido]-phenyl}-acetamide]	> 10 µg/mL
CC(=O)Nc1ccc(NC(=S)Nc2cc(C(F)(F)F)ccc2Cl)cc1 [Example 111, N-{4-[3-(2-Chloro-5-trifluoromethyl-phenyl)-thioureido]-phenyl}-acetamide]	> 10 µg/mL
CC(=O)Nc1ccc(NC(=S)Nc2ccc(Cl)c(C(F)(F)F)c2)cc1 [Example 112, N-{4-[3-(4-Chloro-3-trifluoromethyl-phenyl)-thioureido]-phenyl}-acetamide]	> 10 µg/mL

Same assay, conditions: Human alphaherpesvirus 3, Fibroblast, read-out: % inhibition 10 ug/ml VZV, 10 ug/ml; human foreskin fibroblast cells

Compound	inhibition at 10 µg/mL
COc1cc(OC)c(NC(=S)Nc2ccc(N(C)C(C)=O)cc2)cc1Cl [Example 99, N-{4-[3-(5-Chloro-2,4-dimethoxy-phenyl)-thioureido]-phenyl}-N-methyl-acetamide]	2%
COc1cc(OC)c(NC(=S)Nc2cccc(NC(C)=O)c2)cc1Cl [Example 100, N-{3-[3-(5-Chloro-2,4-dimethoxy-phenyl)-thioureido]-phenyl}-acetamide]	19%
COc1ccc(NC(=S)Nc2ccc(NC(C)=O)cc2)c(OC)c1 [Example 103, N-{4-[3-(2,4-Dimethoxy-phenyl)-thioureido]-phenyl}-acetamide]	28%
COc1ccc(NC(=S)Nc2ccc(NC(C)=O)cc2)cc1 [Example 104, N-{4-[3-(4-Methoxy-phenyl)-thioureido]-phenyl}-acetamide]	8%
COc1ccccc1NC(=S)Nc1ccc(NC(C)=O)cc1 [Example 105, N-{4-[3-(2-Methoxy-phenyl)-thioureido]-phenyl}-acetamide]	32%
COc1ccc(NC(=S)Nc2ccc(NC(C)=O)cc2)cc1Cl [Example 106, N-{4-[3-(3-Chloro-4-methoxy-phenyl)-thioureido]-phenyl}-acetamide]	20%
COc1ccc(Cl)cc1NC(=S)Nc1ccc(NC(C)=O)cc1 [Example 107, N-{4-[3-(5-Chloro-2-methoxy-phenyl)-thioureido]-phenyl}-acetamide]	20%
CC(=O)Nc1ccc(NC(=S)Nc2cc(Cl)c(O)c(Cl)c2)cc1 [Example 108, N-{4-[3-(3,5-Dichloro-4-hydroxy-phenyl)-thioureido]-phenyl}-acetamide]	28%
COc1c(Cl)cc(NC(=S)Nc2ccc(NC(C)=O)cc2)cc1Cl [Example 109, N-{4-[3-(3,5-Dichloro-4-methoxy-phenyl)-thioureido]-phenyl}-acetamide]	27%
COc1cc(NC(=S)Nc2ccc(NC(C)=O)cc2)c(OC)cc1Cl [Example 110, N-{4-[3-(4-Chloro-2,5-dimethoxy-phenyl)-thioureido]-phenyl}-acetamide]	25%
CC(=O)Nc1ccc(NC(=S)Nc2cc(C(F)(F)F)ccc2Cl)cc1 [Example 111, N-{4-[3-(2-Chloro-5-trifluoromethyl-phenyl)-thioureido]-phenyl}-acetamide]	51%
CC(=O)Nc1ccc(NC(=S)Nc2ccc(Cl)c(C(F)(F)F)c2)cc1 [Example 112, N-{4-[3-(4-Chloro-3-trifluoromethyl-phenyl)-thioureido]-phenyl}-acetamide]	55%
